Measured values: ChEMBL document CHEMBL3351325, “Synthesis and biological evaluation of hydroxycinnamic acid hydrazide derivatives as inducer of caspase-3” (Eur J Med Chem, 2014)
Calls of active or inactive are those of the source. The calls are words filed in the database; no cut-off is given here.

Assays:
[1] = Antiproliferative activity against human NL20 cells after 24 hrs by MTT assay; format: cell-based; details: NL20, 24 h
[2] = Antiproliferative activity against human H1299 cells after 24 hrs by MTT assay; format: functional, cell-based; details: NCI-H1299, 24 h
[3] = Antiproliferative activity against human H184B5F5/M10 cells after 24 hrs by MTT assay; format: functional, cell-based; details: H184B5F5/M10, 24 h
MCF7 = test: Antiproliferative activity against human MCF7 cells after 24 hrs by MTT assay; format: functional, cell-based; details: MCF7, 24 h
[4] = Cell cycle arrest in human H1299 cells assessed as reduction in G1 phase at 1.5 uM after 12 to 24 hrs by flow cytometry; format: functional, cell-based; details: NCI-H1299
[5] = Cell cycle arrest in human H1299 cells assessed as accumulated at G2/M phase at 1.5 uM after 12 hrs by flow cytometry (reference value: 5.4%); format: functional, cell-based; details: NCI-H1299
[6] = Cell cycle arrest in human NL20 cells assessed as accumulation at G2/M phase at 1.5 uM after 12 to 24 hrs by flow cytometry; format: ADME, cell-based; details: nl20, 1.5 µM
[7] = Cell cycle arrest in human H1299 cells assessed as accumulated at G2/M phase at 1.5 uM after 24 hrs by flow cytometry (reference value: 5.4%); format: functional, cell-based; details: NCI-H1299
NCI-H1299 [8] = test: Induction of apoptosis in human H1299 cells assessed as change in morphology at 1.5 uM after 24 hrs using Acridine orange/ethidium bromide staining by fluorescence microscopy; format: functional, cell-based
[9] = Cell cycle arrest in human H1299 cells assessed as accumulation at Sub-G1 phase at 1.5 uM after 24 hrs by flow cytometry (reference value: 5.3%); format: functional, cell-based; details: NCI-H1299
[10] = Cell cycle arrest in human H1299 cells assessed as accumulated at G2/M phase at 1.5 uM by flow cytometry; format: functional, cell-based; details: NCI-H1299, TDE = time-dependent effect
[11] = Cell cycle arrest in human H1299 cells assessed as accumulation at Sub-G1 phase at 1.5 uM after 12 hrs by flow cytometry (reference value: 5.3%); format: functional, cell-based; details: NCI-H1299
[12] = Cell cycle arrest in human NL20 cells assessed as accumulation at Sub-G1 phase at 1.5 uM after 12 hrs by flow cytometry (reference value: 4.6 %); format: ADME, cell-based; details: nl20, 12 h
NCI-H1299 [13] = test: Induction of apoptosis in human H1299 cells assessed as caspase 3 protein expression after 24 hrs by Western blot analysis; format: functional, cell-based
[14] = Cell cycle arrest in human NL20 cells assessed as accumulation at Sub-G1 phase at 1.5 uM after 24 hrs by flow cytometry (reference value: 4.6 %); format: ADME, cell-based; details: nl20, 24 h

SMILES	IC50 [1] [µM]	IC50 [2] [µM]	IC50 [3] [µM]	IC50 (MCF7) [µM]	also measured
O=C(/C=C/c1ccc(O)c(O)c1)NNC(=O)c1ccc(O)cc1	> 10	4.48	8.68	6.05	–
COc1cc(/C=C/C(=O)NNC(=O)c2ccccc2)cc(OC)c1O	> 10	> 10	> 10	> 10	–
COc1ccc(C(=O)NNC(=O)/C=C/c2ccc(O)cc2)cc1	> 10	6.64	8.44	6.02	–
O=C(/C=C/c1ccc(O)cc1)NNC(=O)c1ccc(O)cc1	8.62	5.47	> 10	8.8	–
CC[C@@]1(O)C(=O)OCc2c1cc1n(c2=O)Cc2cc3c(CN(C)C)c(O)ccc3nc2-1 [TOPOTECAN]	> 10	4.18	> 10	3.46	–
O=C(/C=C/c1ccc(O)cc1)NNC(=O)c1ccccc1	9.75	7.36	9.32	7.39	–
COc1cc(/C=C/C(=O)NNC(=O)c2ccc(O)cc2)cc(OC)c1O	> 10	8.71	> 10	9.32	–
COc1ccc(C(=O)NNC(=O)/C=C/c2ccc(O)c(OC)c2)cc1	> 10	5.42	> 10	5.62	–
COc1ccc(C(=O)NNC(=O)/C=C/c2cc(OC)c(O)c(OC)c2)cc1	9.42	7.45	9.45	7.17	–
COc1cc(/C=C/C(=O)NNC(=O)c2ccc(O)cc2)ccc1O	> 10	1.5	> 10	4.36	Activity [4]: Active; Activity [5]: 31.7%; Activity [6]: Non-toxic; Activity [7]: 46.2%; Activity (NCI-H1299 [8]): Active; Activity [9]: 12.3%; Activity [10]: tde; Activity [11]: 8.9%; Activity [12]: 5.2%; Activity (NCI-H1299 [13]): Dose-dependent effect; Activity [14]: 4.9%
COc1ccc(C(=O)NNC(=O)/C=C/c2ccc(O)c(O)c2)cc1	9.39	5.42	9.57	4.86	–
COc1cc(/C=C/C(=O)NNC(=O)c2ccccc2)ccc1O	9.55	6.16	9.17	5.22	–
O=C(/C=C/c1ccc(O)c(O)c1)NNC(=O)c1ccccc1	8.85	6.77	8.12	4.75	–
